Source: US20060079453A1, “Hla binding peptides and their uses” (priority 2002, published 2006)
Where two headings read alike, the source gives them in different places. No end group written: not given here.

How the values were obtained:
Test in all cases: biochemical
Type in all cases: binding
[1] = target: HLA-DR DRB1*0401 (DR4) (Homo sapiens, UniProt P01903+P01911, A100K/A169T/F76Y/I96L/K127E/L162R/M171V/N62H/P40V/Q125Y/R42H/S133A/S149N/S66Y/V115G/V209L/W38E)
[2] = target: HLA-DR DRB1*0405 (DR4) (Homo sapiens, UniProt P01903+P01911, A100R/A169T/D86S/F76Y/I96L/K127E/L162R/M171V/N62H/P40V/Q125Y/R42H/S133A/S149N/S66Y/V115G/V209L/W38E)
[3] = target: HLA-DR DRB1*0701 (DR7) (Homo sapiens, UniProt P01903+P01911, A100R/A102G/A103Q/D57E/D86V/E43K/F76Y/K127E/L162R/M171V/P40G/Q125H/Q99D/R33Q/R42Y/R54Q/S133A/S66F/T210M/V115G/Y107V/Y59L/Y89S)
[4] = target: HLA-DR DRB1*0901 (DR9) (Homo sapiens, UniProt P01903+P01911, A100R/A103E/D57H/D86V/F55Y/F60I/F76Y/I96F/K127E/L162R/M171V/P40D/Q125H/Q99R/R33Q/R42F/S133A/S66N/T210M/V115G/W38K/Y107V/Y59G/Y89S)
[5] = target: HLA-DR DRB1*1101 (DR11) (Homo sapiens, UniProt P01903+P01911, A100R/A169T/A87E/I96F/K41T/L162R/M171V/P40S/Q125H/Q178H/Q39Y/Q99D/R42S/S66Y/T262R/V115G/W38E); conditions: DRB1 *1101
Sequence of HLA-DR DRB1*1101 (DR11) (P01903 26-254 limits assumed, other chains not shown): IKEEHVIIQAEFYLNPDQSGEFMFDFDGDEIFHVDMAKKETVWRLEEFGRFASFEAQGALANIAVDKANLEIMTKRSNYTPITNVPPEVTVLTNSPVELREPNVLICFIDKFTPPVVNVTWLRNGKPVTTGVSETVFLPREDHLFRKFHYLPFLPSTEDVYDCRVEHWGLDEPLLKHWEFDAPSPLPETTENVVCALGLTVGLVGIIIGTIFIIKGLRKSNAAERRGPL

[6] = target: HLA-DR DRB1*1302 (DR13) (Homo sapiens, UniProt P01903+P01911, A100E/A169T/K41T/L162R/M171V/P40S/Q125H/Q178H/Q39Y/Q99D/R42S/S66N/T262R/V115G/W38E/Y61H); conditions: DRBI *1302
Sequence of HLA-DR DRB1*1302 (DR13) (P01903 26-254 limits assumed, other chains not shown): as above

[7] = target: HLA-DR DRB1*1501 (DR15) (Homo sapiens, UniProt P01903+P01911); conditions: DRBI *1501
[8] = target: HLA-DR DRB5*0101 (DR51) (Homo sapiens, UniProt P01903+Q30154); conditions: DRB5 *0101
[9] = target: HLA-DR DRB1*0101 (DR1) (Homo sapiens, UniProt P01903+P01911, A100R/D57E/F55L/F60I/F76Y/I96L/L162R/M171V/P40L/Q125E/R42F/V115G/Y59C); conditions: DRB1 *0101
[10] = target: HLA-DR DRB4*0101 (DR53) (Homo sapiens, UniProt P01903+P13762, G164S); conditions: DRB4 *0101
[11] = target: HLA-DR DRB1*0301 (DR3) (Homo sapiens, UniProt P01903+P01911, A100K/A102G/A103R/A169T/F55Y/I96L/K41T/L162R/M171V/P40S/Q125H/Q178H/Q39Y/R42S/S66N/T106N/T262R/W38E/Y61H)
Sequence of HLA-DR DRB1*0301 (DR3) (P01903 26-254 limits assumed, other chains not shown): as above

Compound | IC50 ([1]; DRB1 *0401) | IC50 ([2]; DRB1 *0405) | IC50 ([3]; DRB1 *0701) | IC50 ([4]; DRB1 *0901) | IC50 [5] | IC50 [6] | IC50 [7] | IC50 [8] | IC50 [9] | IC50 [10] | IC50 [11] | IC50 ([1]; read-out: DRB1 *0401) | IC50 ([2]; read-out: DRB1 *0405) | IC50 ([3]; read-out: DRB1 *0701) | IC50 ([4]; read-out: DRB1 *0901)
IDGVNHQHLPARRAE | 34300 nM | > 17000 nM | > 18600 nM | > 39900 nM | > 56200 nM | > 11500 nM | > 36800 nM | 12600 nM |  |  |  |  |  |  | 
VPTLQDVVLELTPQT | 214 nM | 5410 nM | > 35400 nM | > 30600 nM | > 31600 nM | 15000 nM |  | > 31400 nM | 16100 nM | 1000 nM |  |  |  |  | 
LRAFQQLFLNTLSFV | 7.4 nM | 8.3 nM | 75 nM |  |  | 1.01 nM | 20 nM |  | 1.5 nM | 2.2 nM | 648 nM |  |  |  | 
YKFLFTDLRIVYRDN |  | 91 nM | 1520 nM |  | 10100 nM | 77 nM | 2910 nM | 800 nM | 109 nM | 1340 nM | 8.8 nM |  |  |  | 
CC[C@H](C)[C@H](NC(=O)[C@H](CO)NC(=O)[C@H](CC(=O)O)NC(=O)[C@H](CCCNC(=N)N)NC(=O)[C@H](Cc1ccc(O)cc1)NC(=O)[C@@H](NC(=O)[C@@H](NC(=O)[C@H](Cc1ccccc1)NC(=O)[C@@H](N)CC(C)C)C(C)C)C(C)C)C(=O)N1CCC[C@H]1C(=O)N[C@@H](Cc1c[nH]cn1)C(=O)N[C@@H](C)C(=O)N[C@@H](C)C(=O)N[C@@H](CS)C(=O)N[C@@H](Cc1c[nH]cn1)C(=O)O | 3 nM | 690 nM | 2000 nM |  | 1580 nM | 697 nM | 437 nM | 7850 nM | 131 nM | 3580 nM | 62 nM |  |  |  | 
YYDYSVYGATLESIT |  | 230 nM |  | 1400 nM | 9120 nM |  | 1110 nM | > 51000 nM | 1010 nM | 32400 nM |  |  |  |  | 
VFEFAFKDLFVVYRD |  | 120 nM |  | 16800 nM |  | 7670 nM | 4870 nM | > 10700 nM | 6720 nM | 18100 nM |  |  |  |  | 
CC[C@H](C)[C@H](NC(=O)[C@@H](N)Cc1c[nH]c2ccccc12)C(=O)N[C@H](C(=O)N[C@@H](CCC(N)=O)C(=O)N[C@@H](CS)C(=O)N[C@@H](Cc1ccccc1)C(=O)N[C@@H](CC(C)C)C(=O)N1CCC[C@H]1C(=O)N[C@H](C(=O)N[C@@H](Cc1ccccc1)C(=O)N[C@@H](CC(C)C)C(=O)N[C@@H](C)C(=O)N[C@@H](CCC(N)=O)C(=O)N1CCC[C@H]1C(=O)N1CCC[C@H]1C(=O)N[C@@H](CO)C(=O)NCC(=O)N[C@@H](CCC(N)=O)C(=O)N[C@@H](CCCNC(=N)N)C(=O)N[C@@H](CCCNC(=N)N)C(=O)O)C(C)C)[C@@H](C)O | 88 nM | 216 nM | 74200 nM |  |  |  |  |  | 679 nM |  | 25500 nM |  |  |  | 
YLAMPFATPMEAELARRSLA | 266 nM | 405 nM |  |  |  | 2810 nM | 865 nM | 641 nM | 46 nM | 1960 nM | 46600 nM |  |  |  | 
RTAMFQDPQERPRKL | 28200 nM | 7980 nM | 32900 nM | > 25300 nM |  | 17100 nM | 73200 nM | 7470 nM | 9370 nM | 20500 nM |  |  |  |  | 
HQAISPRTLNGPGPGSPAIF |  | 3110 nM | 5080 nM |  | 9870 nM | 638 nM | 5570 nM | 32900 nM | 1550 nM | 232 nM | 728000 nM |  |  |  | 
CC(C)C[C@H](NC(=O)[C@H](CCC(N)=O)NC(=O)[C@H](CCC(N)=O)NC(=O)[C@H](CC(C)C)NC(=O)[C@@H](NC(=O)[C@H](CCCNC(=N)N)NC(=O)[C@@H](N)CC(C)C)[C@@H](C)O)C(=O)N[C@@H](Cc1ccccc1)C(=O)N[C@@H](CC(C)C)C(=O)N[C@@H](CO)C(=O)N[C@H](C(=O)N[C@@H](CC(C)C)C(=O)N[C@@H](CO)C(=O)N[C@@H](Cc1ccccc1)C(=O)N[C@H](C(=O)O)C(C)C)[C@@H](C)O | 18 nM | 9 nM | 60 nM |  | 208 nM | 55 nM | 29 nM | 1990 nM | 8.3 nM | 3.1 nM | 801 nM |  |  |  | 
RQDILDLWVYHTQGY | 1200 nM | 1140 nM | 1630 nM |  | > 51300 nM | 6780 nM | 723 nM | 16200 nM | 2390 nM | 1330 nM | 98300 nM |  |  |  | 
DLFVVYRDSIPHAAC | 82 nM | 3590 nM | 5210 nM | 2370 nM |  | 11200 nM | 2830 nM | 10700 nM |  | 2680 nM |  |  |  |  | 
TEVLDFAFTDLTIVY |  | 871 nM |  | 349 nM | > 18000 nM | > 13100 nM | 561 nM | > 62300 nM | 2070 nM |  |  |  |  |  | 
VVQLDIQSTKEDLRV |  |  |  |  |  |  |  |  |  |  |  | 11100 nM | 46 nM | 3760 nM | 13900 nM
QDVVLELTPQTEIDL | 83 nM | 53 nM |  | 1680 nM | > 31600 nM |  | > 33100 nM | > 31400 nM |  | 1720 nM |  |  |  |  | 
